Assay results reported in the NIST ThermoML archive (doi:10.1016/j.fluid.2005.09.009).
± gives the expanded uncertainty stated by the source.

Legend:
[1] = refractive index (Na D-line) (dimensionless); conditions: 298.15 K; 101.33 kPa; Liquid; Standard Abbe refractometry
[2] = 298.15 K; 101.33 kPa; Liquid

Work on `O` [water] yielded a refractive index [1] of 1.3325 ± 0.0008.
Work on `CCO` [ethanol] yielded a mass density [2] of 785.12 ± 0.31 kg/m3 and a refractive index [1] of 1.3593 ± 0.0007.
`C=CC(C)(O)CCC=C(C)C` (stereo not given) [3,7-dimethyl-1,6-octadien-3-ol] gave a mass density [2] of 858.08 ± 2.2 kg/m3 and a refractive index [1] of 1.4595 ± 0.0009.
